Measurements published in patent publication US6355799B1, “Substituted benzene compounds, process for their preparation, and herbicidal and defoliant compositions containing them” (ISK Americas Incorporated, priority 1997, dated 2002).

How the values were obtained:
Assay type in all cases: in vivo
[1] = system: green foxtail (Setaria viridis, SETVI); test: Post-emerge test, greenhouse herbicide activity screening; conditions: post-emerge, 14 days after application, rating scale 0-100
In short: (§1)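 Plants grown in 10 cm pots of sandy loam mix received acetone-dissolved compounds through a moving flat-fan nozzle. Doses ranged from 15 to 1000 g ai/ha. Pre-emerge pots were seeded one day earlier, post-emerge pots 8–21 days earlier. Fourteen days on, each pot was graded 0–100 for damage.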

[2] = system: large crabgrass (Digitaria sanguinalis, DIGSA); test: as above; conditions: post-emerge, 14 days after application, rating scale 0-100
In short: as §1

[3] = system: velvetleaf (Abutilon theophrasti, ABUTH); test: as above; conditions: post-emerge, 14 days after application, rating scale 0-100
In short: as §1

[4] = system: lambsquarters (Chenopodium album, CHEAL); test: as above; conditions: post-emerge, 14 days after application, rating scale 0-100
In short: as §1

[5] = system: barnyardgrass (Echinochloa crus-galli, ECHCG); test: as above; conditions: post-emerge, 14 days after application, rating scale 0-100
In short: as §1

[6] = system: ivyleaf morningglory (Ipomoea hederacea, IPOHE); test: as above; conditions: post-emerge, 14 days after application, rating scale 0-100
In short: as §1

[7] = system: sicklepod (Cassia obtusifolia, CASOB); test: as above; conditions: post-emerge, 14 days after application, rating scale 0-100
In short: as §1

[8] = system: redroot pigweed (Amaranthus retroflexus, AMARE); test: as above; conditions: post-emerge, 14 days after application
In short: as §1

[9] = system: upland rice (Oryza sp., var. Tebonnet, RICE); test: Pre-emerge test, crop safety; conditions: pre-emerge, 14 days after application, rating scale 0-100
In short: (§2)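 Visual ratings on a 0-100 scale (0 no damage, 100 all plants dead) were taken at 14 days after treatment. Rates of 15-1000 g ai/ha in acetone, 187 l/ha, were sprayed onto soil one day after planting (pre-emerge) or onto 2-3 leaf plants with 0.25% v/v surfactant (post-emerge).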

[10] = system: field corn (Zea mays L., var. Dekalb 535, CORN); test: Pre-emerge test, crop safety; conditions: pre-emerge, 14 days after application, rating scale 0-100
In short: as §2

[11] = system: green foxtail (Setaria viridis, SETVI); test: Pre-emerge test, greenhouse herbicide activity screening; conditions: pre-emerge; for phytotoxicity rating SETVI: 14 days after application, rating scale 0-100; for Pre-emerge Herbicidal Activity SETVI (phytotoxicity rating, scale 0-100): rated 14 days after application, 0 = no damage, 100 = complete death
In short: (§3)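 Rating: 0–100 visual injury, 14 DAA. Application: acetone, 187 l/ha, 15–1000 g ai/ha, flat-fan track sprayer with nozzle 40–45 cm above soil or canopy. Post-emerge runs used 0.25% v/v surfactant on 2–3 leaf plants.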

[12] = system: large crabgrass (Digitaria sanguinalis, DIGSA); test: as above; conditions: pre-emerge; for phytotoxicity rating DIGSA: 14 days after application, rating scale 0-100; for Pre-emerge Herbicidal Activity DIGSA (phytotoxicity rating, scale 0-100): rated 14 days after application, 0 = no damage, 100 = complete death
In short: as §3

[13] = system: velvetleaf (Abutilon theophrasti, ABUTH); test: as above; conditions: pre-emerge; for phytotoxicity rating ABUTH: 14 days after application, rating scale 0-100; for Pre-emerge Herbicidal Activity ABUTH (phytotoxicity rating, scale 0-100): rated 14 days after application, 0 = no damage, 100 = complete death
In short: as §3

[14] = system: lambsquarters (Chenopodium album, CHEAL); test: as above; conditions: pre-emerge; for phytotoxicity rating CHEAL: 14 days after application, rating scale 0-100; for Pre-emerge Herbicidal Activity CHEAL (phytotoxicity rating, scale 0-100): rated 14 days after application, 0 = no damage, 100 = complete death
In short: as §3

[15] = system: barnyardgrass (Echinochloa crus-galli, ECHCG); test: as above; conditions: pre-emerge; for phytotoxicity rating ECHCG: 14 days after application, rating scale 0-100; for Pre-emerge Herbicidal Activity ECHCG (phytotoxicity rating, scale 0-100): rated 14 days after application, 0 = no damage, 100 = complete death
In short: as §3

[16] = system: ivyleaf morningglory (Ipomoea hederacea, IPOHE); test: as above; conditions: pre-emerge; for phytotoxicity rating IPOHE: 14 days after application, rating scale 0-100; for Pre-emerge Herbicidal Activity IPOHE (phytotoxicity rating, scale 0-100): rated 14 days after application, 0 = no damage, 100 = complete death
In short: as §3

[17] = system: sicklepod (Cassia obtusifolia, CASOB); test: as above; conditions: pre-emerge; for phytotoxicity rating CASOB: 14 days after application, rating scale 0-100; for Pre-emerge Herbicidal Activity CASOB (phytotoxicity rating, scale 0-100): rated 14 days after application, 0 = no damage, 100 = complete death
In short: as §3

[18] = system: upland rice (Oryza sp., var. Tebonnet, RICE); test: Post-emerge test, crop safety; conditions: post-emerge, 14 days after application, rating scale 0-100
In short: as §1

[19] = system: field corn (Zea mays L., var. Dekalb 535, CORN); test: Post-emerge test, crop safety; conditions: post-emerge, 14 days after application, rating scale 0-100
In short: as §1

[20] = system: redroot pigweed (Amaranthus retroflexus, AMARE); test: Pre-emerge test, greenhouse herbicide activity screening; conditions: pre-emerge; for phytotoxicity rating AMARE: 14 days after application, rating scale 0-100; for Pre-emerge Herbicidal Activity AMARE (phytotoxicity rating, scale 0-100): rated 14 days after application, 0 = no damage, 100 = complete death
In short: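 Sandy loam pots; pre-emerge: sown 1 d pre-spray, surface-watered after, then bottom-watered. Post-emerge: sown 8–21 d before, 2–3 leaf stage, + 0.25% v/v NIS, bottom-watered. Acetone, 187 l/ha track spray, 15–1000 g ai/ha. 0–100 injury score, day 14.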

[21] = system: johnsongrass (Sorghum halepense, SORHA); test: as above; conditions: pre-emerge; for Pre-emerge Herbicidal Activity SORHA (phytotoxicity rating, scale 0-100): rated 14 days after application, 0 = no damage, 100 = complete death; for phytotoxicity rating SORHA: 14 days after application, rating scale 0-100
In short: as §3

COc1c(Cl)cc(F)c(-n2c(=O)cc(C(F)(F)F)n(C)c2=O)c1NN=Cc1ccc2ccccc2c1 [15-22]
Post-emerge Herbicidal Activity SETVI (phytotoxicity rating) ([1]; 63 g ai/ha): 40 | Post-emerge Herbicidal Activity SETVI (phytotoxicity rating) ([1]; 250 g ai/ha): 95 | Post-emerge Herbicidal Activity DIGSA (phytotoxicity rating) ([2]; 63 g ai/ha): 30 | Post-emerge Herbicidal Activity DIGSA (phytotoxicity rating) ([2]; 250 g ai/ha): 90 | Post-emerge Herbicidal Activity ABUTH (phytotoxicity rating) ([3]; 63 g ai/ha): 100 | Post-emerge Herbicidal Activity ABUTH (phytotoxicity rating) ([3]; 250 g ai/ha): 100 | Post-emerge Herbicidal Activity CHEAL (phytotoxicity rating) ([4]; 63 g ai/ha): 100 | Post-emerge Herbicidal Activity CHEAL (phytotoxicity rating) ([4]; 250 g ai/ha): 100 | Post-emerge Herbicidal Activity ECHCG (phytotoxicity rating) ([5]; 63 g ai/ha): 40 | Post-emerge Herbicidal Activity ECHCG (phytotoxicity rating) ([5]; 250 g ai/ha): 100 | Post-emerge Herbicidal Activity IPOHE (phytotoxicity rating) ([6]; 63 g ai/ha): 100 | Post-emerge Herbicidal Activity IPOHE (phytotoxicity rating) ([6]; 250 g ai/ha): 100 | Post-emerge Herbicidal Activity CASOB (phytotoxicity rating) ([7]; 63 g ai/ha): 70 | Post-emerge Herbicidal Activity CASOB (phytotoxicity rating) ([7]; 250 g ai/ha): 100 | Post-emerge Herbicidal Activity AMARE (phytotoxicity rating) ([8]; 63 g ai/ha, rating scale 0-100 (0 no damage, 100 complete death)): 100 | Post-emerge Herbicidal Activity AMARE (phytotoxicity rating) ([8]; 250 g ai/ha, rating scale 0-100): 100 | phytotoxicity rating RICE ([9]; 63 g ai/ha): 30 | phytotoxicity rating RICE ([9]; 250 g ai/ha): 99 | phytotoxicity rating CORN ([10]; 63 g ai/ha): 25 | phytotoxicity rating CORN ([10]; 250 g ai/ha): 95 | phytotoxicity rating SETVI ([11]; 63 g ai/ha): 90 | phytotoxicity rating SETVI ([11]; 250 g ai/ha): 100 | phytotoxicity rating DIGSA ([12]; 63 g ai/ha): 100 | phytotoxicity rating DIGSA ([12]; 250 g ai/ha): 100 | phytotoxicity rating ABUTH ([13]; 63 g ai/ha): 100 | phytotoxicity rating ABUTH ([13]; 250 g ai/ha): 100 | phytotoxicity rating CHEAL ([14]; 63 g ai/ha): 100 | phytotoxicity rating CHEAL ([14]; 250 g ai/ha): 100 | phytotoxicity rating ECHCG ([15]; 63 g ai/ha): 60 | phytotoxicity rating ECHCG ([15]; 250 g ai/ha): 100 | phytotoxicity rating IPOHE ([16]; 63 g ai/ha): 50 | phytotoxicity rating IPOHE ([16]; 250 g ai/ha): 100 | phytotoxicity rating CASOB ([17]; 63 g ai/ha): 100 | phytotoxicity rating CASOB ([17]; 250 g ai/ha): 100 | Post-emerge Herbicidal Activity RICE (crop damage rating) ([18]; 63 g ai/ha): 50 | Post-emerge Herbicidal Activity RICE (crop damage rating) ([18]; 250 g ai/ha): 90 | Post-emerge Herbicidal Activity CORN (crop damage rating) ([19]; 63 g ai/ha): 30 | Post-emerge Herbicidal Activity CORN (crop damage rating) ([19]; 250 g ai/ha): 90 | phytotoxicity rating AMARE ([20]; 63 g ai/ha): 100 | phytotoxicity rating AMARE ([20]; 250 g ai/ha): 100

O=c1cc(C(F)(F)F)[nH]c(=O)n1-c1c(F)cc(Cl)c(O)c1[N+](=O)[O-] [Compound 1-2, 3-(4-chloro-6-fluoro-3-hydroxy-2-nitrophenyl)-6-trifluoromethyl-2,4(1H, 3H)-pyrimidinedione]
Pre-emerge Herbicidal Activity SETVI (phytotoxicity rating, scale 0-100) ([11]; 63 g ai/ha): 20 | Pre-emerge Herbicidal Activity SETVI (phytotoxicity rating, scale 0-100) ([11]; 250 g ai/ha): 0 | Pre-emerge Herbicidal Activity DIGSA (phytotoxicity rating, scale 0-100) ([12]; 63 g ai/ha): 0 | Pre-emerge Herbicidal Activity DIGSA (phytotoxicity rating, scale 0-100) ([12]; 250 g ai/ha): 30 | Pre-emerge Herbicidal Activity ABUTH (phytotoxicity rating, scale 0-100) ([13]; 63 g ai/ha): 50 | Pre-emerge Herbicidal Activity ABUTH (phytotoxicity rating, scale 0-100) ([13]; 250 g ai/ha): 10 | Pre-emerge Herbicidal Activity CHEAL (phytotoxicity rating, scale 0-100) ([14]; 63 g ai/ha): 0 | Pre-emerge Herbicidal Activity CHEAL (phytotoxicity rating, scale 0-100) ([14]; 250 g ai/ha): 0 | Pre-emerge Herbicidal Activity ECHCG (phytotoxicity rating, scale 0-100) ([15]; 63 g ai/ha): 0 | Pre-emerge Herbicidal Activity ECHCG (phytotoxicity rating, scale 0-100) ([15]; 250 g ai/ha): 0 | Pre-emerge Herbicidal Activity IPOHE (phytotoxicity rating, scale 0-100) ([16]; 63 g ai/ha): 0 | Pre-emerge Herbicidal Activity IPOHE (phytotoxicity rating, scale 0-100) ([16]; 250 g ai/ha): 0 | Pre-emerge Herbicidal Activity SORHA (phytotoxicity rating, scale 0-100) ([21]; 63 g ai/ha): 0 | Pre-emerge Herbicidal Activity SORHA (phytotoxicity rating, scale 0-100) ([21]; 250 g ai/ha): 0 | Pre-emerge Herbicidal Activity CASOB (phytotoxicity rating, scale 0-100) ([17]; 63 g ai/ha): 90 | Pre-emerge Herbicidal Activity CASOB (phytotoxicity rating, scale 0-100) ([17]; 250 g ai/ha): 100 | Pre-emerge Herbicidal Activity AMARE (phytotoxicity rating, scale 0-100) ([20]; 63 g ai/ha): 0 | Pre-emerge Herbicidal Activity AMARE (phytotoxicity rating, scale 0-100) ([20]; 250 g ai/ha): 0

COc1c(Cl)cc(F)c(-n2c(=O)cc(C(F)(F)F)n(C)c2=O)c1O [Compound 16-6, 3-(4-chloro-6-fluoro-2-hydroxy-3-methoxyphenyl)-1-methyl-6-trifluoromethyl-2,4(1H, 3H)-pyrimidinedione]
phytotoxicity rating SETVI ([11]; 63 g ai/ha): 0 | phytotoxicity rating SETVI ([11]; 250 g ai/ha): 40 | phytotoxicity rating DIGSA ([12]; 63 g ai/ha): 0 | phytotoxicity rating DIGSA ([12]; 250 g ai/ha): 70 | phytotoxicity rating ABUTH ([13]; 63 g ai/ha): 90 | phytotoxicity rating ABUTH ([13]; 250 g ai/ha): 100 | phytotoxicity rating CHEAL ([14]; 63 g ai/ha): 90 | phytotoxicity rating CHEAL ([14]; 250 g ai/ha): 100 | phytotoxicity rating ECHCG ([15]; 63 g ai/ha): 0 | phytotoxicity rating ECHCG ([15]; 250 g ai/ha): 50 | phytotoxicity rating IPOHE ([16]; 63 g ai/ha): 50 | phytotoxicity rating IPOHE ([16]; 250 g ai/ha): 90 | phytotoxicity rating SORHA ([21]; 63 g ai/ha): 0 | phytotoxicity rating SORHA ([21]; 250 g ai/ha): 50 | phytotoxicity rating CASOB ([17]; 63 g ai/ha): 50 | phytotoxicity rating CASOB ([17]; 250 g ai/ha): 70 | phytotoxicity rating AMARE ([20]; 63 g ai/ha): 70 | phytotoxicity rating AMARE ([20]; 250 g ai/ha): 100
